Source: PubChem BioAssay (NCI)
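Growth conditions: 96-well plates. Treatment: test compound, 48 hours, 5 concentrations. Analysis: linear interpolation between bracketing concentrations; unreached endpoints set to highest concentration. Abbreviation: GI50, concentration required for 50% inhibition of growth. TGI: total growth inhibition.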

Key:
Assay in all cases: inhibition of tumour cell growth, NCI panel, 48 h
OVCAR-3 ovarian = test system: OVCAR-3 ovarian
OVCAR-8 ovarian = test system: OVCAR-8 ovarian
T-47D breast = test system: T-47D breast
HL-60(TB) leukemia = test system: HL-60(TB) leukemia
LOX IMVI melanoma = test system: LOX IMVI melanoma
IGROV1 ovarian = test system: IGROV1 ovarian
RXF 393 renal = test system: RXF 393 renal
OVCAR-4 ovarian = test system: OVCAR-4 ovarian
K-562 leukemia = test system: K-562 leukemia
SK-OV-3 ovarian = test system: SK-OV-3 ovarian
HCT-116 colon = test system: HCT-116 colon
RPMI-8226 leukemia = test system: RPMI-8226 leukemia
SR leukemia = test system: SR leukemia
MALME-3M melanoma = test system: MALME-3M melanoma
NCI-H226 lung = test system: NCI-H226 lung
NCI-H23 lung = test system: NCI-H23 lung
MCF7 breast = test system: MCF7 breast
HOP-62 NSCLC = test system: HOP-62 NSCLC
SN12C renal = test system: SN12C renal
SK-MEL-5 melanoma = test system: SK-MEL-5 melanoma
MDA-MB-231 breast = test system: MDA-MB-231 breast
SNB-75 CNS = test system: SNB-75 CNS
TK-10 renal = test system: TK-10 renal
UACC-62 melanoma = test system: UACC-62 melanoma
OVCAR-5 ovarian = test system: OVCAR-5 ovarian
HCC-2998 colon = test system: HCC-2998 colon
U251 CNS = test system: U251 CNS
SK-MEL-28 melanoma = test system: SK-MEL-28 melanoma
786-0 renal = test system: 786-0 renal
UACC-257 melanoma = test system: UACC-257 melanoma

CNC(=O)c1cccc(N2CCc3c2ccc(NC(=O)Nc2ccc(N4CCN(C)CC4)c(C(F)(F)F)c2)c3F)c1
GI50 (OVCAR-3 ovarian): 5.04 µM | TGI (OVCAR-3 ovarian): 11 µM | GI50 (OVCAR-8 ovarian): 7.5 µM | TGI (OVCAR-8 ovarian): 16.4 µM | GI50 (T-47D breast): 6.33 µM | TGI (T-47D breast): 19.3 µM | GI50 (HL-60(TB) leukemia): 7.63 µM | TGI (HL-60(TB) leukemia): 25.7 µM | GI50 (LOX IMVI melanoma): 5.15 µM | TGI (LOX IMVI melanoma): 10.3 µM | GI50 (IGROV1 ovarian): 6.21 µM | TGI (IGROV1 ovarian): 11.7 µM | GI50 (RXF 393 renal): 0.976 µM | TGI (RXF 393 renal): 2.65 µM | GI50 (OVCAR-4 ovarian): 5.07 µM | TGI (OVCAR-4 ovarian): 11.5 µM | GI50 (K-562 leukemia): 6.69 µM | TGI (K-562 leukemia): > 36.5 µM | GI50 (SK-OV-3 ovarian): 5.93 µM | TGI (SK-OV-3 ovarian): 11.7 µM | GI50 (HCT-116 colon): 5.06 µM | TGI (HCT-116 colon): 13.8 µM | GI50 (RPMI-8226 leukemia): 1.59 µM | TGI (RPMI-8226 leukemia): > 36.5 µM | GI50 (SR leukemia): 5.74 µM | TGI (SR leukemia): > 36.5 µM | GI50 (MALME-3M melanoma): 4.17 µM | TGI (MALME-3M melanoma): 8.7 µM | GI50 (NCI-H226 lung): 6.12 µM | TGI (NCI-H226 lung): 14.6 µM | GI50 (NCI-H23 lung): 5.97 µM | TGI (NCI-H23 lung): 11.8 µM | GI50 (MCF7 breast): 4.63 µM | TGI (MCF7 breast): 10.3 µM | GI50 (HOP-62 NSCLC): 5.23 µM | TGI (HOP-62 NSCLC): 11.9 µM | GI50 (SN12C renal): 5.81 µM | TGI (SN12C renal): 11.1 µM | GI50 (SK-MEL-5 melanoma): 5.43 µM | TGI (SK-MEL-5 melanoma): 10.4 µM | GI50 (MDA-MB-231 breast): 2.93 µM | TGI (MDA-MB-231 breast): 7.59 µM | GI50 (SNB-75 CNS): 1.25 µM | TGI (SNB-75 CNS): 6.93 µM | GI50 (TK-10 renal): 6.21 µM | TGI (TK-10 renal): 11.6 µM | GI50 (UACC-62 melanoma): 5.9 µM | TGI (UACC-62 melanoma): 10.8 µM | GI50 (OVCAR-5 ovarian): 5.45 µM | TGI (OVCAR-5 ovarian): 10.3 µM | GI50 (HCC-2998 colon): 5.3 µM | TGI (HCC-2998 colon): 10.3 µM | GI50 (U251 CNS): 3.73 µM | TGI (U251 CNS): 8.59 µM | GI50 (SK-MEL-28 melanoma): 4.99 µM | TGI (SK-MEL-28 melanoma): 9.81 µM | GI50 (786-0 renal): 1.99 µM | TGI (786-0 renal): 8.25 µM | GI50 (UACC-257 melanoma): 6.1 µM
